According to patent US10653701B2, “Substituted quinazolines for inhibiting kinase activity” (NeuPharma, Inc., priority 2013, dated 2020):

Assays:
H1975 tumor xenograft = assay: Inhibition of tumor growth in H1975 tumor xenograft model; format: in vivo, BALB/c female nude mice; conditions: QD x 14
Description: H1975 cells were implanted in BALB/c female nude mice and grown as tumor xenografts. When tumors achieved 120-200 mm^3, mice were assigned into treatment and control groups using randomized block design based upon their tumor volumes. Each group contained 6 tumor-bearing mice. Tumors were measured twice weekly in two dimensions using a caliper, and the tumor volume was calculated from two-dimensional measurements using the equation V=0.5×a×b^2 where a and b are the long and short diameters of the tumor, respectively. Relative tumor volume (RTV) was defined as TVt/TVi, the ratio of the volume on a given day (TVt) and the volume at the start of treatment (TVi). Relative tumor growth rate (T/C) was defined as RTVT/RTVC, the ratio of relative tumor volume of treatment group (RTVT) and relative tumor volume of control group (RTVC) on a given day. Inhibition of tumor growth in a H1975 tumor xenograft model by some compounds is shown below in Table 6 and Table 7.

FGFR1 = FGFR1 (Homo sapiens (Human), UniProt P11362); assay: Z'-LYTE kinase inhibition assay, FGFR1; format: biochemical; conditions: compound at 0.041 μM
FGFR1, sequence (P11362 22-822): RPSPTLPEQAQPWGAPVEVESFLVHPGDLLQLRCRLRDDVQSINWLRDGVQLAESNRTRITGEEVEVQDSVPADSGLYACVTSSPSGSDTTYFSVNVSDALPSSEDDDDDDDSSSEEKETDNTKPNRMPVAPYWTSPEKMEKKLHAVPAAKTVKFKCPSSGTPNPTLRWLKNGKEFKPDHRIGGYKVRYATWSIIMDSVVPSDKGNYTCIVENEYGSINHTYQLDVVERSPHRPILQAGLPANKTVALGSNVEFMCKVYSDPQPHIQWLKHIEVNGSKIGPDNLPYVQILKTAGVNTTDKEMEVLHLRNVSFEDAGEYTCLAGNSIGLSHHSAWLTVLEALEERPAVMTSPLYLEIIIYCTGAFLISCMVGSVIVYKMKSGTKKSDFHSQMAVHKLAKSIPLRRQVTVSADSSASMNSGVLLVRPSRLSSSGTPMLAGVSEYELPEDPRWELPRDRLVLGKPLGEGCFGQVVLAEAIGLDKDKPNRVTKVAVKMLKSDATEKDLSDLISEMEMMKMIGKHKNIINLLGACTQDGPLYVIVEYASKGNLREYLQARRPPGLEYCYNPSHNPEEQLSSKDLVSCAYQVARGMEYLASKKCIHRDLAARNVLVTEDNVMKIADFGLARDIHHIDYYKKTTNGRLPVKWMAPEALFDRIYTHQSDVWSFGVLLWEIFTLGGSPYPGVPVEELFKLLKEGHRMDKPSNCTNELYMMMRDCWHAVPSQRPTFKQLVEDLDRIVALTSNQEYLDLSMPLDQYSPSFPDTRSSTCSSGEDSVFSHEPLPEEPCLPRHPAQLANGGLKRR
Description: Inhibitory activities of compounds against BTK, EGFR and EGFR mutants (EGFR L858R, EGFR T790M, EGFR L858R/T790M), FGFR1, FGFR2, JAK2, JAK3 and KDR were measured by Invitrogen using Z′-LYTE® Method as briefly described in the following.
Test Compounds are screened in 1% DMSO (final) in the well. For 10 point titrations, 3-fold serial dilutions are conducted from the starting concentration. All ATP Solutions are diluted to a 4× working concentration in Kinase Buffer (50 mM HEPES pH 7.5, 0.01% BRIJ-35, 10 mM MgCl2, 1 mM EGTA). Peptide/Kinase Mixtures are diluted to a 2× working concentration in the appropriate Kinase Buffers as described below.
(v) Peptide/Kinase Mixtures for measurement of FGFR1:
The 2×FGFR1/Tyr 04 mixture is prepared in 50 mM HEPES pH 7.5, 0.01% BRIJ-35, 10 mM MgCl2, 4 mM MnCl2, 1 mM EGTA, 2 mM DTT. The final 10 μL Kinase Reaction consists of 0.41-3.5 ng FGFR1 and 2 μM Tyr 04 in 50 mM HEPES pH 7.5, 0.01% BRIJ-35, 10 mM MgCl2, 2 mM MnC12, 1 mM EGTA, 1 mM DTT. After the 1 hour Kinase Reaction incubation, 5 μL of a 1:64 dilution of Development Reagent B is added.
Reaction starts by 30-second shaking of mixture consisting of 2.5 μL 4× test compound, 5 μL 2× kinase reaction mixture and 2.5 μL 4×ATP Solution on Bar-coded Corning, low volume NBS, black 384-well plate (Corning Cat. #3676). […] Finally fluorescence is read by plate reader. […]

[1] = Table 6, 30 mg/kg, Intraperitoneal injection

SMILES	T/C (H1975 tumor xenograft; [1]) [%]	T/C (H1975 tumor xenograft; Table 7, 60 mg/kg, Oral) [%]	other results
C=CC(=O)Nc1cccc(-c2cccc3cnc(Nc4ccc(N5CCN(C)CC5)cc4)nc23)c1 [Example C021, N-(3-(2-((4-(4-methylpiperazin-1-yl)phenyl)amino)quinazolin-8-yl)phenyl)acrylamide]			T/C (H1975 tumor xenograft; Table 6, 60 mg/kg, Oral): 30.5%
C=CC(=O)Nc1cccc(-c2cccc3cnc(Nc4ccc(N5CCN(C(C)=O)CC5)cc4)nc23)c1 [Example C032, N-(3-(2-((4-(4-acetylpiperazin-1-yl)phenyl)amino)quinazolin-8-yl)phenyl)acrylamide]			inhibition at 0.041 µM (FGFR1): > 50%
C=CC(=O)Nc1cccc(-c2cccc3cnc(Nc4ccc(N5CCN(C)CC5)nc4)nc23)c1 [Example C041, N-(3-(2-((6-(4-methylpiperazin-1-yl)pyridin-3-yl)amino)quinazolin-8-yl)phenyl)acrylamide]	48.7		
C=CC(=O)Nc1cccc(-c2cccc3cnc(Nc4ccc(N5CCN(CCO)CC5)cc4)nc23)c1 [Example C059, N-(3-(2-((4-(4-(2-hydroxyethyl)piperazin-1-yl)phenyl)amino)quinazolin-8-yl)phenyl)acrylamide]			T/C (H1975 tumor xenograft; Table 6, 60 mg/kg, Oral): 35.3%
C=CC(=O)Nc1cccc(-c2cccc3cnc(Nc4ccc(NC5CN(CCF)C5)cc4)nc23)c1 [Example C103, N-(3-(2-((4-((1-(2-fluoroethyl)azetidin-3-yl)amino)phenyl)amino)quinazolin-8-yl)phenyl)acrylamide]	35.8		
C=CC(=O)Nc1cccc(-c2cccc3cnc(Nc4ccc(OCCOC)cc4)nc23)c1 [Example C107, N-(3-(2-((4-(2-methoxyethoxy)phenyl)amino)quinazolin-8-yl)phenyl)acrylamide]	63.6		
C=CC(=O)Nc1cccc(-c2cccc3cnc(Nc4ccc(N5CCN(CCO)CC5)cc4F)nc23)c1 [Example C147, N-(3-(2-((2-fluoro-4-(4-(2-hydroxyethyl)piperazin-1-yl)phenyl)amino)quinazolin-8-yl)phenyl)acrylamide]		55.7	
C=CC(=O)Nc1cccc(-c2cccc3cnc(Nc4ccc(N5CCN(CCO)CC5)c(F)c4F)nc23)c1 [Example C151, N-(3-(2-((2,3-difluoro-4-(4-(2-hydroxyethyl)piperazin-1-yl)phenyl)amino)quinazolin-8-yl)phenyl)acrylamide]		28.6	
C=CC(=O)Nc1cccc(-c2cccc3cnc(Nc4ccc(N5CCN(C)CC5)c(F)c4F)nc23)c1 [Example C156, N-(3-(2-((2,3-difluoro-4-(4-methylpiperazin-1-yl)phenyl)amino)quinazolin-8-yl)phenyl)acrylamide]		36.8	
